From patent EP3057950B1, “PHENYL LINKED QUINOLINYL MODULATORS OF ROR-GAMMA-T” (Janssen Pharmaceutica NV, priority 2013, dated 2015)
Counter-ions that a name gives are not always drawn.

Legend:
[1] = biological target: T1, wild type human RORγt ligand binding domain (RORγt LBD) (Homo sapiens, UniProt P51449); experiment: RORγt ThermoFluor® Assay (thermal shift, binding affinity); conditions: pH 7.0, estimated from concentration response curves
T1 construct: His-tag (N); TurboTEV protease cleavage site (ENLYFQG) (N); made in house; host or cells: E. coli (pHIS1, modified pET expression vector)
T1 sequence (P51449 269-508 limits assumed): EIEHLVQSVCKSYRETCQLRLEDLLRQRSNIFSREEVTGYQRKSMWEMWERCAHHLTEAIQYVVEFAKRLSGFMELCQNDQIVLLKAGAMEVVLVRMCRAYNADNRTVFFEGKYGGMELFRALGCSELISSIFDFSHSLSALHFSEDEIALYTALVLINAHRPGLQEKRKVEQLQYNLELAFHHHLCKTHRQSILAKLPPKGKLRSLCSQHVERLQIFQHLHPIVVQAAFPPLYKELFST
Procedure, shortened: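 Thermal shift assay on 0.065 mg/mL RORγt LBD with 60 µM 1,8-ANS in 100 mM Hepes pH 7.0, 10 mM NaCl, 2.5 mM GSH, 0.002% Tween-20. Heated at 1 °C/min, fluorescence read at 500 nm.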

[2] = biological target: T2, wild type human RORγt LBD (Homo sapiens, UniProt P51449); experiment: RORγt Reporter Assay (GAL4-RORγt LBD luciferase in HEK293T cells); type: cell-based; conditions: HEK293T cells; for IC50: compounds for 24 hours, read-out: RORγt reporter Assay, IC50; for inhibition at 6 µM: HEK-293T, read-out: RORγt reporter Assay, % inhibition @ 6 µM, @ 6 µM
T2 construct: expressed in transfected cells; host or cells: HEK293T
T2 sequence (P51449 269-508 limits assumed): T1 sequence (P51449 269-508 limits assumed)
Procedure, shortened: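 HEK293T cells transiently co-transfected with GAL4-DBD–human RORγt LBD (or AF2 mutant) and GAL4-responsive firefly luciferase reporter; renilla luciferase normalised transfection and viability. Compounds applied 24 h in 5% lipid-reduced FCS; firefly/renilla ratio plotted against concentration.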

[3] = test system: IL-17 production by CD4 T cells; experiment: Human Th17 Assay (IL-17 production by CD4 T cells under Th17 differentiation conditions); type: cell-based; conditions: 3 days, IL-17 in supernatant
Description: The human Th17 assay tests the effect of RORγt modulatory compounds on IL-17 production by CD4 T cells under conditions which favor Th17 differentiation. Total CD4^+ T cells were isolated from the peripheral blood mononuclear cells (PBMC) of healthy donors using a CD4^+ T cell isolation kit II, following the manufacturer's instructions (Miltenyi Biotec). […] 50 µL of compound at titrated concentrations in DMSO were added into each well at final DMSO concentration at 0.2%. Cells were incubated for 1 hour, then 50 µL of Th17 cell differentiation medium was added to each well. The final concentrations of antibodies and cytokines (R&D Systems) in differentiation medium were: 3x10^6/mL anti-CD3/CD28 beads (prepared using human T cell activation/expansion kit, Miltenyi Biotec), 10 µg/mL anti-IL4, 10 µg/mL anti-IFNγ, 10 ng/mL […], 10 ng/mL IL23, 50 ng/mL IL6, 3 ng/mL TGFβ and 20 U/mL IL2. Cells were cultured at 37 °C and 5% CO2 for 3 days. Supernatants were collected and the accumulated IL-17 in culture was measured by using MULTI-SPOT® Cytokine Plate following manufacture's instruction (Meso Scale Discovery). The plate was read using Sector Imager 6000, and IL-17 concentration was extrapolated from the standard curve. The IC50s were determined by GraphPad.

| Compound | Kd [1] [µM] | IC50 [2] [µM] | inhibition at 6 µM [2] [%] | IC50 ([3]; Homo sapiens, CD4+ T, 72 h) [µM] | RORγt reporter Assay, % inhibition @ 6 µM [2] [%] | IC50 [3] [µM] | IC50 ([3]; 72 h) [µM] |
| --- | --- | --- | --- | --- | --- | --- | --- |
| Cn1cncc1C(O)(c1ccc(Cl)cc1)c1ccc2nc(Cl)c(-c3ccccc3)c(Cl)c2c1 (stereo not shown) [Example 65, (4-Chlorophenyl)(2,4-dichloro-3-phenylquinolin-6-yl)(1-methyl-1H-imidazol-5-yl)methanol] |  |  |  |  |  |  | 1.8 |
| Cc1nc(C)c(C(O)(c2ccc3nc(Cl)c(-c4ccccc4)c(Cl)c3c2)c2cncn2C)s1 (stereo not shown) [Example 68, (2,4-Dichloro-3-phenylquinolin-6-yl)(2,4-dimethylthiazol-5-yl)(1-methyl-1H-imidazol-5-yl)methanol] |  |  |  |  |  |  | 0.02 |
| OC(c1ccccc1)(c1ccc2nc(Cl)c(-c3ccccc3Cl)c(Cl)c2c1)c1ncco1 (stereo not shown) [Example 74, (2,4-Dichloro-3-(2-chlorophenyl)quinolin-6-yl)(oxazol-2-yl)(phenyl)methanol] | 11 | > 6 | 60 |  |  |  |  |
| N#Cc1nc2ccc(C(O)(c3ccc(C(F)(F)F)nc3)c3cccc(Cl)c3)cc2cc1-c1ccccc1 (stereo not shown) [Example 75, 6-((3-Chlorophenyl)(hydroxy)(6-(trifluoromethyl)pyridin-3-yl)methyl)-3-phenylquinoline-2-carbonitrile] | 14 | 2.9 | 99 |  |  |  |  |
| N#Cc1nc2ccc(C(O)(c3cccc(Cl)c3)c3ccnc(C(F)(F)F)c3)cc2c(C#N)c1-c1ccccc1 (stereo not shown) [Example 76, 6-((3-Chlorophenyl)(hydroxy)(2-(trifluoromethyl)pyridin4-yl)methyl)-3-phenylquinoline-2,4-dicarbonitrile] | 18 | ~2 | 80 |  |  |  |  |
| OC(c1cccc(Cl)c1)(c1ccnc(C(F)(F)F)c1)c1ccc2nc(Cl)c(-c3ccccc3)c(Cl)c2c1 (stereo not shown) [Example 77, (3-Chlorophenyl)(2,4-dichloro-3-phenylquinolin-6-yl)(2-(trifluoromethyl)pyridin-4-yl)methanol] | 12 | > 6 | 48 |  |  |  |  |
| CN1CCC(C(O)(c2cccnc2)c2ccc3nc(Cl)c(-c4ccccc4)c(Cl)c3c2)CC1 (stereo not shown) [Example 78, (2,4-Dichloro-3-phenylquinolin-6-yl)(1-methylpiperidin4-yl)(pyridin-3-yl)methanol•TFA] | 14 | > 6 | 33 |  |  |  |  |
| CCCCc1c(-c2ccccc2)c(OC(C)C)nc2ccc(C(O)(c3ccncc3)c3cncn3C)cc12 (stereo not shown) [Example 80, (4-Butyl-2-isopropoxy-3-phenylquinolin-6-yl)(1-methyl-1H-imidazol-5-yl)(pyridin4-yl)methanol•TFA] | 12 | > 6 | 72 |  |  |  |  |
| CNCCN(C)c1nc2ccc(C(O)(c3ccncc3)c3cncn3C)cc2c(Cl)c1-c1ccccc1 (stereo not shown) [Example 82] | 11 | > 6 | 18 |  |  |  |  |
| CN(C)c1nc2ccc(C(O)(c3ccncc3)c3ccccn3)cc2c(Cl)c1-c1ccccc1 (stereo not shown) [Example 84, (4-Chloro-2-(dimethylamino)-3-phenylquinolin-6-yl)(pyridin-2-yl)(pyridin4-yl)methanol•TFA] | 17 | 3.5 | 93 |  |  |  |  |
| CN(C)c1c(-c2ccccc2)c(Cl)nc2ccc(C(O)(c3ccccn3)c3cncn3C)cc12 (stereo not shown) [Example 85, (2-Chloro-4-(dimethylamino)-3-phenylquinolin-6-yl)(1-methyl-1H-imidazol-5-yl)(pyridin-2-yl)methanol•TFA] | 20 | 3.5 | 81 |  |  |  |  |
| Cc1nc(C)c(C(O)(c2ccc(Cl)cc2)c2ccc3nc(Cl)c(-c4ccccc4)c(Cl)c3c2)s1 (stereo not shown) [Example 87, (4-Chlorophenyl)(2,4-dichloro-3-phenylquinolin-6-yl)(2,4-dimethylthiazol-5-yl)methanol] | 12 | > 6 | 56 |  |  |  |  |
| COc1nc2ccc(C(O)(c3ncccn3)c3cncn3C)cc2c(OC)c1-c1ccccc1 (stereo not shown) [Example 88, (2,4-Dimethoxy-3-phenylquinolin-6-yl)(1-methyl-1H-imidazol-5-yl)(pyrimidin-2-yl)methanol] | 20 | > 6 | 32 |  |  |  |  |
| OC(c1cccnc1)(c1ccc2nc(Cl)c(-c3ccccc3)c(Cl)c2c1)C1CCNCC1 (stereo not shown) [Example 91, (2,4-Dichloro-3-phenylquinolin-6-yl)(piperidin-4-yl)(pyridin-3-yl)methanol•TFA] | 21 | > 6 | 0 |  |  |  |  |

Further lines, with some results ahead:

| Kd [1] [µM] | IC50 [2] [µM] | inhibition at 6 µM [2] [%] | IC50 ([3]; Homo sapiens, CD4+ T, 72 h) [µM] | RORγt reporter Assay, % inhibition @ 6 µM [2] [%] | IC50 [3] [µM] | Compound | IC50 ([3]; 72 h) [µM] |
| --- | --- | --- | --- | --- | --- | --- | --- |
| 0.13 | 0.16 | 89 | 0.4 |  |  | COc1nc2ccc(C(O)(c3cncn3C)C3CCN(C(C)=O)CC3)cc2c(Cl)c1-c1cccc(C(F)(F)F)c1 (single isomer, unassigned) [Example 1b, 1-(4-((4-Chloro-2-methoxy-3-(3-(trifluoromethyl)phenyl)quinolin-6-yl)(hydroxy)(1-methyl-1H-imidazol-5-yl)methyl)piperidin-1-yl)ethanone] |  |
| 0.033 | 0.11 |  |  | 95 | 0.31 | COc1nc2ccc(C(O)(c3cncn3C)C3CCN(C(C)=O)CC3)cc2c(Cl)c1-c1cccc(C(F)(F)F)c1 (single isomer, unassigned) [Example 1c, 1-(4-((4-Chloro-2-methoxy-3-(3-(trifluoromethyl)phenyl)quinolin-6-yl)(hydroxy)(1-methyl-1H-imidazol-5-yl)methyl)piperidin-1-yl)ethanone] |  |
| 0.13 | 0.2 | 91 |  |  | 2.9 | COc1nc2ccc(C(O)(c3cncn3C)C3CCN(C(C)=O)CC3)cc2c(C#N)c1-c1cccc(C(F)(F)F)c1 (single isomer, unassigned) [Example 2b, 6-((1-Acetylpiperidin-4-yl)(hydroxy)(1-methyl-1H-imidazol-5-yl)methyl)-2-methoxy-3-(3-(trifluoromethyl)phenyl)quinoline-4-carbonitrile] |  |
| 0.14 | 0.17 |  |  | 95 | 0.67 | COc1nc2ccc(C(O)(c3cncn3C)C3CCN(C(C)=O)CC3)cc2c(C#N)c1-c1cccc(C(F)(F)F)c1 (single isomer, unassigned) [Example 2c, 6-((1-Acetylpiperidin-4-yl)(hydroxy)(1-methyl-1H-imidazol-5-yl)methyl)-2-methoxy-3-(3-(trifluoromethyl)phenyl)quinoline-4-carbonitrile] |  |
| 0.00056 | 0.003 | 96 |  |  | 0.013 | COc1nc2ccc(C(O)(c3cncn3C)c3cnnn3C)cc2c(Cl)c1-c1cccc(C(F)(F)F)c1 (single isomer, unassigned) [Example 3b, (4-Chloro-2-methoxy-3-(3-(trifluoromethyl)phenyl)quinolin-6-yl)(1-methyl-1H-1,2,3-triazol-5-yl)(1-methyl-1H-imidazol-5-yl)methanol] |  |
| 0.0023 | 0.0066 |  |  | 98 | 0.043 | COc1nc2ccc(C(O)(c3cncn3C)c3cnnn3C)cc2c(Cl)c1-c1cccc(C(F)(F)F)c1 (single isomer, unassigned) [Example 3c, (4-Chloro-2-methoxy-3-(3-(trifluoromethyl)phenyl)quinolin-6-yl)(1-methyl-1H-1,2,3-triazol-5-yl)(1-methyl-1H-imidazol-5-yl)methanol] |  |
|  |  |  | 0.21 | 103 |  | COc1c(-c2ccccc2)c(Cl)nc2ccc(C(O)(c3cnnn3C)c3cnc(C)n3C)cc12 (single isomer, unassigned) [Example 40c, (2-Chloro-4-metboxy-3-phenylquinolin-6-yl)(1,2-dimethyl-1H-imidazol-5-yl)(1-methyl-1H-1,2,3-triazol-5-yl)methanol] |  |
